{
  "source": "paper PMC6261997",
  "about": "“Synergistic enzymatic and bioorthogonal reactions for selective prodrug activation in living systems” (Nature Communications, 2018)",
  "key": {"[1]": {"test": "MTT cell viability / cytotoxicity assay, HeLa cells", "type": "cell-based", "details": "human; 500 μM 2, 24 h, MTT", "procedure": "Cells were plated in flat-bottom 96-well plates at a density of 3 × 10^3 cells per well. After 12 h of cell attachment, the cell culture medium was replaced with 100 μL of pre-warmed media containing the compounds at different concentrations. After 24–72 h of incubation, cell proliferation was assessed by the MTT assay. A fresh mixture of 10 μL of thiazolyl blue tetrazolium bromide (MTT) and 90 μL of medium were freshly added to each well. After incubation for 4 h, the medium was gently removed. The formazan crystals that formed were dissolved in 110 μL of DMSO, and the absorbance was subsequently measured with a plate reader (Perkin Elmer) at 490 nm. EC50 values were calculated using Origin software. To measure the cytotoxicity of 2, HeLa cells, HUVECs, Saos-2 cells and CCC-HEH-2 cells were incubated with 100 μL of 1–500 μM 2 for 24 h, and then, cell viability was determined. To measure the cytotoxicity of TCO-Dox or Dox, HeLa cells, HUVECs, Saos-2 cells or CCC-HEH-2 cells were incubated with 200 μL of 0.001–10 μM TCO-Dox or Dox for 72 h, and the cell viability was determined. To determine the cytotoxicity of activated Dox, HeLa cells, HUVECs, […], and then, 2 was removed and 200 μL of 0.0001–10 μM TCO-Dox was added for 72 h of incubation, and cell viability was determined. […]\nProdrug activation efficacy in cells: Cells were plated on flat bottom 96-well plates at a\ndensity of 3x10^3 cells per well. After 12 h attachment, cells were incubated with 100 µL\n500 µM of 2 for 6 h before removing 2 and the addition of 200 µL 0.0001-10 µM of […]"}, "Saos-2 cells": {"system": "Saos-2 cells", "test": "Clonogenic assay, Saos-2 cells", "type": "cell-based", "details": "pre-treated with 500 μM 2 for 6 h", "procedure": "Supplementary Figure 17. Clonogenic assay of different cell lines before and after treatment with 2. HeLa cells, HUVECs and Saos-2 cells were seeded at density of 400 cells per well, CCC-HEH-2 cells were seeded at density of 200 cells per well. Cells were incubated with 500 µM 2 for 6 h in the treatment groups. Cells were not treated with compound 2 in the control groups. Colonies were harvest approximately 10 days after seeding. Scale bar, 10 mm.\nSupplementary Figure 18. Cytotoxicity of activated Dox against HeLa cells and HUVECs. HeLa cells or HUVECs at the density of 3x10^3 cells per well were incubated with 100 µL of pre-warmed medium containing compound 2 at 300 or 500 µM for 6 h. After washing with PBS, 100 µL of 0.0001-10 µM TCO-Dox was added. After 72 h, cell proliferation was assessed by the MTT assay (n= 6). Error bars indicate standard […]\nSupplementary Figure 19. […] At each time point, the remaining 2, corresponding generated 3 and remaining TCO-Dox were determined by UPLC-MS/MS. […]\nClonogenic assay of cells in vitro: Clonogenic assay was performed according to the standard protocol.6 2×10^5 attached cells were treated with 500 µM of 2 for 6 h in culture dishes. Cells were then detached, re-suspended in cultural medium and counted accurately. […]\nThe glutaraldehyde crystal violet mixture was removed carefully. […] The number of the colonies was counted using a stereomicroscope. […]"}},
  "data": [
    {"smiles": "Cc1nnc(-c2ccc(CC(=O)NCCCCC(NC(=O)Cc3ccc4ccccc4c3)C(=O)NC(Cc3ccc(OP(=O)(O)O)cc3)C(=O)NC(Cc3ccccc3)C(=O)O)cc2)nn1", "note": "(centres unmarked) [compound 2, NapK(Tz)YpF]", "values": [
      {"measurement": "viability at 24 h, 500 μM", "setting": "[1]", "result": "> 85", "unit": "%"},
      {"measurement": "Surviving Fraction, Saos-2", "setting": "Saos-2 cells", "result": "0±0", "unit": "%"}
    ]}
  ]
}
